Drawing on patent US12558357B2, “Tetrahydroquinazoline derivatives as selective cytotoxic agents” (Merck Sharp & Dohme LLC, priority 2020, dated 2026), this text covers EC50 for 28 compounds.

Molecules are shown by their SMILES. pEC50: −log10 of the molar value.

The test system of this assay is PBMCs infected with VSV-G pseudotyped HIV virus (VSV-G/pNLG1-P2A-ΔEnv). Briefly: cells. In kind it is cell-based, human. The settings on record: Homo sapiens, PBMC, read-out: EC50 (HIV-TACK cell kill activity).
In the case of `CC(C)C#CC1(C(F)(F)F)NC(=O)Nc2cc(Cn3cnccc3=O)ccc21` (racemic) [Example 77, (S)-4-(3-methylbut-1-yn-1-yl)-7-((6-oxopyrimidin-1(6H)-yl)methyl)-4-(trifluoromethyl)-3,4-dihydroquinazolin-2(1H)-one AND (R)-4-(3-methylbut-1-yn-1-yl)-7-((6-oxopyrimidin-1(6H)-yl)methyl)-4-(trifluoromethyl)-3,4-dihydroquinazolin-2(1H)-one], the pEC50 (usually the EC50 on a negative log10 scale, so that one unit is a factor of ten) was 7.06.
As to `CN1C(=O)Nc2cc(Cn3cnccc3=O)c(Cl)cc2C1(C#CC1CC1)C(F)(F)F` (racemic) [Example 78, (S)-6-chloro-4-(cyclopropylethynyl)-3-methyl-7-((6-oxopyrimidin-1(6H)-yl)methyl)-4-(trifluoromethyl)-3,4-dihydroquinazolin-2(1H)-one AND (R)-6-chloro-4-(cyclopropylethynyl)-3-methyl-7-((6-oxopyrimidin-1(6H)-yl)methyl)-4-(trifluoromethyl)-3,4-dihydroquinazolin-2(1H)-one], the pEC50 was 7.42.
The result for `CC(C)CC#CC1(C(F)(F)F)NC(=O)Nc2cc(Cn3cnccc3=O)ccc21` (racemic) [Example 79, (S)-4-(4-methylpent-1-yn-1-yl)-7-((6-oxopyrimidin-1(6H)-yl)methyl)-4-(trifluoromethyl)-3,4-dihydroquinazolin-2(1H)-one AND (R)-4-(4-methylpent-1-yn-1-yl)-7-((6-oxopyrimidin-1(6H)-yl)methyl)-4-(trifluoromethyl)-3,4-dihydroquinazolin-2(1H)-one] reads 6.64; that for `N#Cc1cc2c(cc1Cn1cnccc1=O)NC(=O)NC2(C#CC1CC1)C(F)(F)F` (single isomer, unassigned) [Example 75], 6.66; that for `CN1C(=O)Nc2cc(Cn3ccnc(N)c3=O)c(Cl)cc2C1(C#CC1CC1)C(F)(F)F` (single isomer, unassigned) [Example 76], 7.38.
The result for `O=C1Nc2cc(Cn3cnccc3=O)c(F)cc2[C@@](C#CC2CC2)(C(F)(F)F)N1` [Example 1, (S)-4-(cyclopropylethynyl)-6-fluoro-7-((6-oxopyrimidin-1(6H)-yl)methyl)-4-(trifluoromethyl)-3,4-dihydroquinazolin-2(1H)-one] reads 7.66.
Consider `Nc1nccn(Cc2cc3c(cc2F)[C@@](C#CC2CC2)(C(F)(F)F)NC(=O)N3)c1=O` [Example 2, (S)-7-((3-amino-2-oxopyrazin-1(2H)-yl)methyl)-4-(cyclopropylethynyl)-6-fluoro-4-(trifluoromethyl)-3,4-dihydroquinazolin-2(1H)-one], for which the pEC50 is 7.82.
Turning to `Cc1cc(=O)n(Cc2cc3c(cc2Cl)[C@@](C#CC2CC2)(C(F)(F)F)NC(=O)N3)cn1` [Example 3, (S)-6-chloro-4-(cyclopropylethynyl)-7-((4-methyl-6-oxopyrimidin-1(6H)-yl)methyl)-4-(trifluoromethyl)-3,4-dihydroquinazolin-2(1H)-one], the pEC50 was 7.59.
The result for `CC(F)(F)[C@@]1(C#CC2CC2)NC(=O)Nc2cc(Cn3cnccc3=O)c(F)cc21` [Example 4, (S)-4-(cyclopropylethynyl)-4-(1,1-difluoroethyl)-6-fluoro-7-((6-oxopyrimidin-1(6H)-yl)methyl)-3,4-dihydroquinazolin-2(1H)-one] reads 7.80.
The result for `Nc1cncn(Cc2cc3c(cc2F)[C@@](C#CC2CC2)(C(F)(F)F)NC(=O)N3)c1=O` [Example 5, (S)-7-((5-amino-6-oxopyrimidin-1(6H)-yl)methyl)-4-(cyclopropylethynyl)-6-fluoro-4-(trifluoromethyl)-3,4-dihydroquinazolin-2(1H)-one] reads 7.46; that for `O=C1Nc2cc(Cn3cnc(C(F)F)cc3=O)c(F)cc2[C@@](C#CC2CC2)(C(F)(F)F)N1` [Example 6, (S)-4-(cyclopropylethynyl)-7-((4-(difluoromethyl)-6-oxopyrimidin-1(6H)-yl)methyl)-6-fluoro-4-(trifluoromethyl)-3,4-dihydroquinazolin-2(1H)-one], 7.42; that for `COCc1cc(=O)n(Cc2cc3c(cc2F)[C@@](C#CC2CC2)(C(F)(F)F)NC(=O)N3)cn1` [Example 7, (S)-4-(cyclopropylethynyl)-6-fluoro-7-((4-(methoxymethyl)-6-oxopyrimidin-1(6H)-yl)methyl)-4-(trifluoromethyl)-3,4-dihydroquinazolin-2(1H)-one], 7.36.
For the compound `Nc1c(Cl)ncn(Cc2cc3c(cc2F)[C@@](C#CC2CC2)(C(F)(F)F)NC(=O)N3)c1=O` [Example 8, (S)-7-((5-amino-4-chloro-6-oxopyrimidin-1(6H)-yl)methyl)-4-(cyclopropylethynyl)-6-fluoro-4-(trifluoromethyl)-3,4-dihydroquinazolin-2(1H)-one], the pEC50 is 7.34.
As to `Nc1nccn(Cc2ccc3c(c2)NC(=O)N[C@]3(C#CC2CC2)C(F)(F)F)c1=O` [Example 9, (S)-7-((3-amino-2-oxopyrazin-1(2H)-yl)methyl)-4-(cyclopropylethynyl)-4-(trifluoromethyl)-3,4-dihydroquinazolin-2(1H)-one], the pEC50 was 7.52.
For `Nc1c(Cl)ncn(Cc2cc3c(cc2Cl)[C@@](C#CC2CC2)(C(F)(F)F)NC(=O)N3)c1=O` [Example 11, (S)-7-((5-amino-4-chloro-6-oxopyrimidin-1(6H)-yl)methyl)-6-chloro-4-(cyclopropylethynyl)-4-(trifluoromethyl)-3,4-dihydroquinazolin-2(1H)-one], the pEC50 was 7.48.
Consider `O=C1Nc2cc(Cn3cnc(Cl)cc3=O)c(Cl)cc2[C@@](C#CC2CC2)(C(F)(F)F)N1` [Example 12, (S)-6-chloro-7-((4-chloro-6-oxopyrimidin-1(6H)-yl)methyl)-4-(cyclopropylethynyl)-4-(trifluoromethyl)-3,4-dihydroquinazolin-2(1H)-one], for which the pEC50 was 7.48.
The result for `Nc1cc(=O)n(Cc2cc3c(cc2Cl)[C@@](C#CC2CC2)(C(F)(F)F)NC(=O)N3)cn1` [Example 13, (S)-7-((4-amino-6-oxopyrimidin-1(6H)-yl)methyl)-6-chloro-4-(cyclopropylethynyl)-4-(trifluoromethyl)-3,4-dihydroquinazolin-2(1H)-one] reads 7.34; that for `O=C1Nc2cc(Cn3cnccc3=O)c(Br)cc2[C@@](C#CC2CC2)(C(F)(F)F)N1` [Example 14, (S)-6-bromo-4-(cyclopropylethynyl)-7-((6-oxopyrimidin-1(6H)-yl)methyl)-4-(trifluoromethyl)-3,4-dihydroquinazolin-2(1H)-one], 7.51; that for `COCc1cc(=O)n(Cc2ccc3c(c2)NC(=O)N[C@]3(C#CC2CC2)C(C)(F)F)cn1` [Example 15, (S)-4-(cyclopropylethynyl)-4-(1,1-difluoroethyl)-7-((4-(methoxymethyl)-6-oxopyrimidin-1(6H)-yl)methyl)-3,4-dihydroquinazolin-2(1H)-one], 7.19.
For the compound `Nc1nc(Br)cn(Cc2cc3c(cc2F)[C@@](C#CC2CC2)(C(F)(F)F)NC(=O)N3)c1=O` [Example 16, (S)-7-((3-amino-5-bromo-2-oxopyrazin-1(2H)-yl)methyl)-4-(cyclopropylethynyl)-6-fluoro-4-(trifluoromethyl)-3,4-dihydroquinazolin-2(1H)-one], the pEC50 is 7.42.
Consider `CC(F)(F)[C@@]1(C#CC2CC2)NC(=O)Nc2cc(Cn3ccnc(N)c3=O)c(Cl)cc21` [Example 17, (S)-7-((3-amino-2-oxopyrazin-1(2H)-yl)methyl)-6-chloro-4-(cyclopropylethynyl)-4-(1,1-difluoroethyl)-3,4-dihydroquinazolin-2(1H)-one], for which the pEC50 was 7.77.
For the compound `Cc1cc(=O)n(Cc2cc3c(cc2Cl)[C@@](C#CC2CC2)(C(C)(F)F)NC(=O)N3)cn1` [Example 18, (S)-6-chloro-4-(cyclopropylethynyl)-4-(1,1-difluoroethyl)-7-((4-methyl-6-oxopyrimidin-1(6H)-yl)methyl)-3,4-dihydroquinazolin-2(1H)-one], the pEC50 is 7.82.
Take `COCc1cc(=O)n(Cc2cc3c(cc2Cl)[C@@](C#CC2CC2)(C(C)(F)F)NC(=O)N3)cn1` [Example 19, (S)-6-chloro-4-(cyclopropylethynyl)-4-(1,1-difluoroethyl)-7-((4-(methoxymethyl)-6-oxopyrimidin-1(6H)-yl)methyl)-3,4-dihydroquinazolin-2(1H)-one]: the negative logarithm of the EC50 (pEC50) is 7.85.
The result for `Nc1nccn(Cc2c(F)cc3c(c2F)NC(=O)N[C@]3(C#CC2CC2)C(F)(F)F)c1=O` [Example 20, (S)-7-((3-amino-2-oxopyrazin-1(2H)-yl)methyl)-4-(cyclopropylethynyl)-6,8-difluoro-4-(trifluoromethyl)-3,4-dihydroquinazolin-2(1H)-one] reads 7.33.
The result for `O=C1Nc2cc(Cn3cnccc3=O)ccc2[C@@](C#CC2CC2)(C(F)(F)F)N1` [Example 21, (S)-4-(cyclopropylethynyl)-7-((6-oxopyrimidin-1(6H)-yl)methyl)-4-(trifluoromethyl)-3,4-dihydroquinazolin-2(1H)-one] reads 6.74; that for `O=C1Nc2cc(Cn3cnc(C4CC4)cc3=O)ccc2[C@@](C#CC2CC2)(C(F)(F)F)N1` [Example 22, (S)-7-((4-cyclopropyl-6-oxopyrimidin-1(6H)-yl)methyl)-4-(cyclopropylethynyl)-4-(trifluoromethyl)-3,4-dihydroquinazolin-2(1H)-one], 6.54.
`O=C1Nc2cc(Cn3ncccc3=O)ccc2[C@@](C#CC2CC2)(C(F)(F)F)N1` [Example 23, (S)-4-(cyclopropylethynyl)-7-((6-oxopyridazin-1(6H)-yl)methyl)-4-(trifluoromethyl)-3,4-dihydroquinazolin-2(1H)-one]: the negative-log EC50 (pEC50) is 6.60.
The result for `Nc1ccnn(Cc2ccc3c(c2)NC(=O)N[C@]3(C#CC2CC2)C(F)(F)F)c1=O` [Example 24, (S)-7-((5-amino-6-oxopyridazin-1(6H)-yl)methyl)-4-(cyclopropylethynyl)-4-(trifluoromethyl)-3,4-dihydroquinazolin-2(1H)-one] reads 6.68.
